Assay results as given in patent US20100095387A1, “METHODS AND REAGENTS FOR SCREENING NEW DRUGS AND FOR TREATING ION PUMP ASSOCIATED DISORDERS AND DISEASES” (priority 2005, published 2010).

Columns and labels:
α3Na+/K+-ATPase = α3Na+/K+-ATPase (Mus musculus, UniProt Q6PIC6); experiment: Na+ imaging (SBFI-AM) of cultured cortical cells; assay type: cell-based; details: fragment or ouabain alone; neurons
[1] = tested on: layer V neurons in acute cortical slices; experiment: Whole cell current clamp of layer V neurons in acute cortical slices; assay type: cell-based, mouse

| Structure (SMILES) | neuronal intracellular Na+ (α3Na+/K+-ATPase) | action potential frequency [1] [Hz] | membrane potential [1] [mV] |
| --- | --- | --- | --- |
| C[C@@H]1O[C@@H](O[C@H]2C[C@@H](O)[C@]3(CO)[C@H]4[C@H](O)C[C@]5(C)[C@@H](C6=CC(=O)OC6)CC[C@]5(O)[C@@H]4CC[C@]3(O)C2)[C@H](O)[C@H](O)[C@H]1O [ouabain, reference compound] | increase |  |  |
| C=C(C)[C@H]1CN[C@H](C(=O)O)[C@H]1CC(=O)O [kainic acid, reference compound] |  | 0.6±0.2 | −56.2±1.3 |
